Measured values reported in US20230131535A1, “ARYLMETHYLENE AROMATIC COMPOUNDS AS Kv1.3 POTASSIUM SHAKER CHANNEL BLOCKERS” (D. E. Shaw Research, LLC, priority 2019, published 2023).
pIC50: −log10 of the molar value. Read-outs that look alike come from different tables or passages of the source.

What was measured:
[1] = molecular target: T1, hERG channel (Homo sapiens, UniProt Q12809); assay: hERG electrophysiology, automated whole-cell patch clamp (Patchliner); assay type: cell-based; conditions: CHO-K1 cells stably expressing hERG, whole cell current, tail current protocol, read-out: hERG_IC50
T1 construct: expressed in transfected cells
T1 sequence (Q12809 whole entry): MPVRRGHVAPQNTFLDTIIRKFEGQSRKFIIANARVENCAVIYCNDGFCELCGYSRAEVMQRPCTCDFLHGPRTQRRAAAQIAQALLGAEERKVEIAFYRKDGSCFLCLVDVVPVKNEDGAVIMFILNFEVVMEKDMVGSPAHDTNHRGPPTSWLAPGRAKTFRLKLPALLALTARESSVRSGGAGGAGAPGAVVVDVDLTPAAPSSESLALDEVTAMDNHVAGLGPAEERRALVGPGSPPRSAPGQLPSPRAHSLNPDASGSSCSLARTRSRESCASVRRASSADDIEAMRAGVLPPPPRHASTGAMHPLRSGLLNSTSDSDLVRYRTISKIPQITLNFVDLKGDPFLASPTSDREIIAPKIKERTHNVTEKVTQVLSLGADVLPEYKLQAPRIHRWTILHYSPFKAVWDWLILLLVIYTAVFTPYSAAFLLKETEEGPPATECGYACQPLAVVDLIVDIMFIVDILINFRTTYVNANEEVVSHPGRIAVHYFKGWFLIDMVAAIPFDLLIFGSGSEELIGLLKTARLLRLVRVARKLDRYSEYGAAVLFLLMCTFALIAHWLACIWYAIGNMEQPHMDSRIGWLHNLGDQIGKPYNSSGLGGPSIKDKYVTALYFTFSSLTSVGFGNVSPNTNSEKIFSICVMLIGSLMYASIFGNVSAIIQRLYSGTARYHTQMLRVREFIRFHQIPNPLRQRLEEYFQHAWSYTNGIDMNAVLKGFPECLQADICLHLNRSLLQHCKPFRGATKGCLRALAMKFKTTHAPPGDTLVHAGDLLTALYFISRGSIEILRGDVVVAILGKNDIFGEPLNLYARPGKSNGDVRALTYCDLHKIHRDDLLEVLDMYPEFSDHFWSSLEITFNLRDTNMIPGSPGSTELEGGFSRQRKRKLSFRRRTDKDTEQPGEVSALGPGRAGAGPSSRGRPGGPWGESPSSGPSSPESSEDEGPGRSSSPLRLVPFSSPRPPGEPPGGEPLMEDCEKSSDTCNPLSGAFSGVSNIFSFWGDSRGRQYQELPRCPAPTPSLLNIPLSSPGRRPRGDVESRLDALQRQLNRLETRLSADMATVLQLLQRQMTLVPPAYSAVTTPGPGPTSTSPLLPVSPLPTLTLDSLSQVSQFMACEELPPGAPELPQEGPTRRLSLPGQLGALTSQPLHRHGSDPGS
Procedure: Example 68. Evaluation of hERG Activities
This assay is used to evaluate the disclosed compounds' inhibition activities against the hERG channel.
CHO-K1 cells stably expressing hERG were grown in Ham's F-12 Medium with Glutamine containing 10% heat-inactivated FBS, 1% Penicillin/Streptomycin, Hygromycin (100 μg/ml) and G418 (100 μg/ml). Cells were grown in culture flasks at 37° C. in a 5% CO2-humidified incubator.
(§1) The cells were bathed in an extracellular solution containing 140 mM NaCl, 4 mM KCl, 2 mM CaCl2), 1 mM MgCl2, 5 mM Glucose, 10 mM HEPES; pH adjusted to 7.4 with NaOH; 295-305 mOsm. The internal solution contained 50 mM KCl, 10 mM NaCl, 60 mM KF, 20 mM EGTA, 10 mM HEPES; pH adjusted to 7.2 with KOH; 285 mOsm. All compounds were dissolved in DMSO at 30 mM. Compound stock solutions were freshly diluted with external solution to concentrations of 30 nM, 100 nM, 300 nM, 1 μM, 3 μM, 10 μM, 30 μM and 100 μM. The highest content of DMSO (0.3%) was present in 100 μM.
The voltage protocol (see Table 5) was designed to simulate voltage changes during a cardiac action potential with a 300 ms depolarization to +20 mV (analogous to the plateau phase of the cardiac action potential), a repolarization for 300 ms to −50 mV (inducing a tail current) and a final step to the holding potential of −80 mV. The pulse frequency was 0.3 Hz. Control (compound-free) and compound pulse trains for each compound concentration applied contained 70 pulses.
Whole cell current recordings and compound application were enabled by means of an automated patch clamp platform Patchliner (Nanion). EPC 10 patch clamp amplifier (HEKA) along with Patchmaster software (HEKA Elektronik Dr. Schulze GmbH) was used for data acquisition. Data were sampled at 10 kHz without filtering. Increasing compound concentrations were applied consecutively to the same cell without washouts in between.
(§2) AUC and PEAK values were obtained with Patchmaster (HEKA Elektronik Dr. Schulze GmbH). To determine IC50 the last single pulse in the pulse train corresponding to a given compound concentration was used. Obtained AUC and PEAK values in the presence of compound were normalized to control values in the absence of compound. Using Origin (OridinLab), IC50 was derived from data fit to Hill equation: Icompound/Icontrol=(100−A)/(1+([compound]/IC50)nH)+A, where IC50 is the concentration at which current inhibition is half-maximal, [compound] is the applied compound concentration, A is the fraction of current that is not blocked and nH is the Hill coefficient.

[2] = molecular target: T2, Kv1.3 potassium channel (Homo sapiens, UniProt P22001); assay: Kv1.3 potassium channel blocker activity, automated whole-cell patch clamp (Patchliner); assay type: cell-based; conditions: CHO-K1 cells stably expressing Kv1.3, whole cell current, pulses -90 mV to +40 mV, read-out: Kv1.3_IC50
T2 construct: expressed in transfected cells
T2 sequence (P22001 whole entry): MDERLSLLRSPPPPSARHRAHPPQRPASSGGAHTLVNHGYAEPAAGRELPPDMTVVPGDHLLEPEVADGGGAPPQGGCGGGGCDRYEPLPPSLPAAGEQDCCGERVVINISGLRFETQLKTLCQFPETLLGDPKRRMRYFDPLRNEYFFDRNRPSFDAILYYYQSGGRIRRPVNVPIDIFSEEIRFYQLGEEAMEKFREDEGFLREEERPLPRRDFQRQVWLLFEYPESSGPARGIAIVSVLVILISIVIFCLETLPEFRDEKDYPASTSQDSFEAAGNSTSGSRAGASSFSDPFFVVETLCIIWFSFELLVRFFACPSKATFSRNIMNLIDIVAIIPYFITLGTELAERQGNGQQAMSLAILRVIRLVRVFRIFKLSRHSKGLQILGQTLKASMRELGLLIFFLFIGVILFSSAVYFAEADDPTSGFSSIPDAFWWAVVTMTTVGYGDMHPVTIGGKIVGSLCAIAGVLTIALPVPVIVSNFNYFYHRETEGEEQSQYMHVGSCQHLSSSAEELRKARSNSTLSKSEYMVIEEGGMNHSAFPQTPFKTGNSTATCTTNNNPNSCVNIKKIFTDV
Procedure: Example 67. Evaluation of Kv1.3 Potassium Channel Blocker Activities
The assay described below is used to evaluate the disclosed compound's activities as Kv1.3 potassium channel blockers.
CHO-K1 cells stably expressing Kv1.3 were grown in DMEM containing 10% heat-inactivated FBS, 1 mM Sodium Pyruvate, 2 mM L-Glutamine and G418 (500 μg/ml). Cells were grown in culture flasks at 37° C. in a 5% CO2-humidified incubator.
as §1
The currents were evoked by applying 100 ms depolarizing pulses from −90 mV (holding potential) to +40 mV were applied with 0.1 Hz frequency. Control (compound-free) and compound pulse trains for each compound concentration applied contained 20 pulses. 10 second breaks were used between pulse trains (see Table 4 below).
Whole cell current recordings and compound application were enabled by means of an automated patch clamp platform Patchliner (Nanion Technologies GmbH). EPC 10 patch clamp amplifier (HIEKA Elektronik Dr. Schulze GmbH) along with Patchmaster software (HIEKA Elektronik Dr. Schulze GmbH) was used for data acquisition. Data were sampled at 10 kHz without filtering. Passive leak currents were subtracted online using a P/4 procedure (HEKA Elektronik Dr. Schulze GmbH). Increasing compound concentrations were applied consecutively to the same cell without washouts in between. Total compound incubation time before the next pulse train was not longer than 10 seconds. Peak current inhibition was observed during compound equilibration.
as §2, with “AUC and peak values were” for “AUC and PEAK values were”, “To determine IC50, the last” for “To determine IC50 the last”, “AUC and peak values in” for “AUC and PEAK values in”, “where IC50 value is the” for “where IC50 is the”

Structure (SMILES) | pIC50 ([2]; Table 6) | pIC50 ([2]; Table 7) | pIC50 ([1]; Table 6) | pIC50 ([1]; Table 7)
Oc1ccc(Cl)c(Cl)c1C(O)c1ccncc1 (single isomer, unassigned) [Compound 34, 3,4-dichloro-2-(hydroxy(pyridin-4-yl)methyl)phenol] | > 4.52 |  | < 4.52 | 
Oc1ccc(Cl)c(Cl)c1C(O)c1ccncc1 (single isomer, unassigned) [Compound 37, 3,4-dichloro-2-(hydroxy(pyridin-4-yl)methyl)phenol] | > 6.00 |  | < 4.52 | 
NC(c1ccc2c(c1)CNC2)c1cc(Cl)c(Cl)cc1O (centres unmarked) [Compound 21, 2-[amino(2,3-dihydro-1H-isoindol-5-yl)methyl]-4,5-dichlorophenol] | > 6.00 |  | > 4.52 | 
CC(=O)NC(c1ccncc1)c1c(O)ccc(Cl)c1Cl (single isomer, unassigned) [Compound 41, N-((2,3-dichloro-6-hydroxyphenyl)(pyridin-4-yl)methyl)acetamide] | > 6.00 |  | < 4.52 | 
Nc1cc(C(O)c2c(O)ccc(Cl)c2Cl)ccn1 (centres unmarked) [Compound 36, 2-[(2-aminopyridin-4-yl)(hydroxy)methyl]-3,4-dichlorophenol] | > 6.00 |  | < 4.52 | 
C[C@H](NC(=O)C1CN(CCO)C1)c1c(O)ccc(Cl)c1Cl [Compound 89, N-[(1S)1-(2,3-dichloro-6-hydroxyphenyl)ethyl]-1-(2-hydroxyethyl) azetidine-3-carboxamide] |  | > 6.00 |  | < 4.52
C[C@H](NC(=O)C1CNC1)c1c(O)ccc(Cl)c1Cl [Compound 76, N-[(1S)-1-(2,3-dichloro-6-hydroxyphenyl)ethyl]azetidine-3-carboxamide] |  | > 6.00 |  | < 4.52
Oc1cc(Cl)c(Cl)cc1Cc1ccncc1 [Compound 1, 2-[(pyridin-4-yl)methyl]-4,5-dichlorophenol] | > 5.00 |  | < 4.52 | 
C[C@H](NC(=O)C1CNC1)c1c(O)ccc(Cl)c1Br [Compound 98, N-[(1S)-1-(2-bromo-3-chloro-6-hydroxyphenyl)ethyl]azetidine-3-carboxamide] |  | > 6.00 |  | < 4.52
NC(=O)c1ccc(C(O)c2c(O)ccc(Cl)c2Cl)cc1 (centres unmarked) [Compound 64, 4-[(2,3-dichloro-6-hydroxyphenyl)(hydroxy)methyl]benzamide] | > 6.00 |  | < 4.52 | 
CC(=O)NC(c1ccncc1)c1c(O)ccc(Cl)c1Cl (single isomer, unassigned) [Compound 38, N-((2,3-dichloro-6-hydroxyphenyl)(pyridin-4-yl)methyl)acetamide] | > 4.52 |  | < 4.52 | 
Nc1ccc(Cc2cc(Cl)c(Cl)cc2O)cn1 [Compound 8, 2-[(6-aminopyridin-3-yl)methyl]-4,5-dichlorophenol] | > 5.00 |  | > 4.52 | 
CC(NC(=O)C1CNC1)c1c(O)ccc(Br)c1Cl (stereo in doubt) [Compound 91, N-[(1R)-1-3-bromo-2-chloro-6-hydroxyphenyl) ethyl]azetidine-3-carboxamide] |  | > 6.00 |  | < 4.52
NC(c1ccncc1)c1c(O)ccc2ccccc12 (centres unmarked) [Compound 17, 1-[amino(pyridin-4-yl)methyl]naphthalen-2-ol] | > 5.00 |  | > 4.52 | 

Further lines, with some results ahead:

pIC50 ([2]; Table 6) | pIC50 ([2]; Table 7) | Structure (SMILES) | pIC50 ([1]; Table 6) | pIC50 ([1]; Table 7)
> 6.00 |  | Oc1ccc(Cl)c(Cl)c1C(O)c1cccnc1 (centres unmarked) [Compound 31, 3,4-dichloro-2-[hydroxy(pyridin-3-yl)methyl]phenol] | < 4.52 | 
> 6.00 |  | Cc1cnccc1C(NC(=O)C1CNC1)c1c(O)ccc(Cl)c1Cl (centres unmarked) [Compound 9, N-[(2,3-dichloro-6-hydroxyphenyl)(3-methylpyridin-4-yl)methyl]azetidine-3-carboxamide] | < 4.52 | 
> 5.00 |  | Oc1cc(Cl)c(Cl)cc1C(O)c1ccncc1 (centres unmarked) [Compound 27, 4,5-dichloro-2-[hydroxy(pyridin-4-yl)methyl]phenol] | < 4.52 | 
> 6.00 |  | CC(=O)NC(c1ccncc1)c1c(O)ccc(Cl)c1Cl (centres unmarked) [Compound 20, N-[(2,3-dichloro-6-hydroxyphenyl)(pyridin-4-yl)methyl]acetamide] | < 4.52 | 
> 6.00 |  | NCc1cc(C(O)c2c(O)ccc(Cl)c2Cl)ccn1 (centres unmarked) [Compound 28, 2-[[2-(aminomethyl)pyridin-4-yl](hydroxy)methyl]-3,4-dichlorophenol] | < 4.52 | 
> 5.00 |  | NC(c1ccncc1)c1c(O)ccc(Cl)c1Cl (centres unmarked) [Compound 11, 2-[amino(pyridin-4-yl)methyl]-3,4-dichlorophenol] | < 4.52 | 
> 6.00 |  | Nc1ccc(C(O)c2c(O)ccc(Cl)c2Cl)cn1 (centres unmarked) [Compound 40, 2-[(6-aminopyridin-3-yl)(hydroxy)methyl]-3,4-dichlorophenol] | > 4.52 | 
> 6.00 |  | O=C(N[C@H](c1ccncc1)c1c(O)ccc(Cl)c1Cl)[C@@H]1CCCN1 (single isomer, unassigned) [Compound 68] | > 4.52 | 
> 6.00 |  | O=C(NC(c1ccncc1)c1cc(Cl)c(Cl)cc1O)C1CNC1 (centres unmarked) [Compound 26, N-[(4,5-dichloro-2-hydroxyphenyl)(pyridin-4-yl)methyl]azetidine-3-carboxamide] | < 4.52 | 
 | > 6.00 | Cc1cc(O)c([C@H](N)CNC(=O)C2CNC2)cc1Cl [Compound 94, N-[(2S)-2-amino-2-(5-chloro-2-hydroxy-4-methylphenyl)ethyl]azetidine-3-carboxamide] |  | < 4.52
> 6.00 |  | CN1CC(C(=O)NC(c2ccncc2)c2c(O)ccc(Cl)c2Cl)C1 (centres unmarked) [Compound 73, N-[(2,3-dichloro-6-hydroxyphenyl)(pyridin-4-yl)methyl]-1-methylazetidine-3-carboxamide] | < 4.52 | 
